Read-outs that look alike come from different tables or passages of the source.
What was measured:
Assay in all cases: Ras GTP binding domain inhibition assay (Cy3-GTP/Cy5-GTP competition)
KRas G12C mutant = test system: KRas G12C mutant; design: species or system human; details: 20 μM
Experimental: (§1) The following method was developed as specific assay for the following proteins: KRas wild type, KRas Q61H mutant, KRas G12C mutant, KRas G12D mutant, HRas wild type, Rac-1, and Rho-A.
(§2) • 25 mM Tris-HCl, pH 7.4 • 27 mM KCl • 137 mM NaCl • 1 mM MgCl2 • 1 mM DTT
(§3) • 50 mM Tris-HCl, pH 7.0 • 1 mM MgCl2 • 1 mM DTT
(§4) The small GTPases proteins: KRas wild type. KRas Q61H mutant, KRas G12C mutant, KRas G12D mutants, HRas wild type, Rac-1, and Rho-A were expressed as His-tagged proteins. In addition, the Guanosine nucleotide Exchange Factor (GEF) Sos protein (residues 556-1049) was expressed as a His-tagged protein. In cells, the guanine nucleotide exchange factor Sos protein promotes activation of Ras proteins by stimulating an exchange of GDP for GTP. The inclusion of Sos to the Ras GTP binding domain inhibition assay may be considered as an alternative representation of physiological cellular conditions for evaluating the inhibitory activity of some of the tested small molecules.
(§5) For the assay, all purified small GTPases proteins were diluted in Buffer-I or Buffer-II to a final concentration of 10-30 μg/mL. 200 μL of each diluted protein was added to a nickel-coated 96-well plate and incubated overnight at 4° C. Then the protein solution was discarded and 200 μL of Buffer-I or Buffer-II was added to each well in the presence of 1% DMSO. Compounds to be tested were added to the protein-coated wells at final concentration of 20 μM, and incubated for 3 hours at room temperature with and without […] of Sos added to the final hour of the incubation. When performing IC50 measurements a serial dilution of all tested concentrations was added. Then Cy3-GTP or Cy5-GTP was added to each well to a final concentration of 100 nM. The labeled GTP was incubated for 45 minutes at room temperature. Following GTP incubation, wells were washed 3× in Buffer-I or Buffer-II and 200 μL of Buffer-I or Buffer-II was added to each well. Following washes, the amount of bound labeled-GTP was measured using a SpectraMax M3 (Molecular Devices).

KRas Q61H mutant = test system: KRas Q61H mutant; design: species or system human; details: 20 μM
Experimental: as §1, §2, §3, §4, §5

KRas wild type = test system: KRas wild type; design: species or system human; details: 20 μM; for KRas wild type: % inh.: without SOS; for KRas wild type % inh.: without SOS (Table 7A)
Experimental: as §1, §2, §3, §4, §5

KRas G12D mutant = target: T1, KRas G12D mutant (Homo sapiens, UniProt P01116, G12D); details: for IC50: cell-free, 100 nM Cy3-GTP or Cy5-GTP
T1 construct: fused on or other part: His tag, used for capture on nickel-coated plates
Experimental: as §1, §2, §3, §4, §5

[1] = 20 μM, with SOS, read-out: KRas G-12D mutant + SOS: % inh.
[2] = 20 μM, without SOS, read-out: KRas G12D mutant: % inh.
[3] = 20 μM, with SOS (Table 7A), read-out: KRas G12D mutant + SOS: % inh.
[4] = 20 μM, without SOS (Table 7A), read-out: KRas G12D mutant: % inh.
[5] = at 20 μM, with SOS, read-out: KRas G12D mutant + SOS: % inh.
[6] = at 20 μM, without SOS, read-out: KRas G12D mutant: % inh.

Compound	KRas Q61H mutant + SOS: % inh. (KRas Q61H mutant; with SOS (Table 7A))	KRas Q61H mutant: % inh. (KRas Q61H mutant; without SOS (Table 7A))	KRas wild type + SOS: % inh. (KRas wild type; with SOS (Table 7A))	KRas wild type % inh. (KRas wild type)	inhibition at 20 µM (KRas G12D mutant; [3])	inhibition at 20 µM (KRas G12D mutant; [4])	IC50 (KRas G12D mutant)	other results
COc1ncccc1-c1sc2nc(-c3nccn3C)nc(N3CCC(OC)C3)c2c1-c1ccccc1.Cl (stereo not shown)	–	–	–	–	–	–	–	KRas G12C mutant + SOS: % inh. (KRas G12C mutant; with SOS): C (51-75% inhibition); KRas G12C mutant: % inh. (KRas G12C mutant; without SOS): C (51-75% inhibition); KRas Q61H mutant + SOS: % inh. (KRas Q61H mutant; with SOS): C (51-75% inhibition); KRas Q61H mutant: % inh. (KRas Q61H mutant; without SOS): C (51-75% inhibition); KRas wild type + SOS: % inh. (KRas wild type; with SOS): C (51-75% inhibition); KRas wild type: % inh. (KRas wild type): C (51-75% inhibition); inhibition at 20 µM (KRas G12D mutant; [1]): 51 to 75%; inhibition at 20 µM (KRas G12D mutant; [2]): 51 to 75%
COCCNc1nc(-c2nccn2C)nc2sc(-c3cccc(OC)c3Cl)c(-c3ccccc3)c12 [drawing 872]	–	–	–	–	–	–	–	KRas G12C mutant + SOS: % inh. (KRas G12C mutant; with SOS): D (76-100% inhibition); KRas G12C mutant: % inh. (KRas G12C mutant; without SOS): C (51-75% inhibition); KRas Q61H mutant + SOS: % inh. (KRas Q61H mutant; with SOS): D (76-100% inhibition); KRas Q61H mutant: % inh. (KRas Q61H mutant; without SOS): B (26-50% inhibition); KRas wild type + SOS: % inh. (KRas wild type; with SOS): D (76-100% inhibition); KRas wild type: % inh. (KRas wild type): B (26-50% inhibition); inhibition at 20 µM (KRas G12D mutant; [1]): 76 to 100%; inhibition at 20 µM (KRas G12D mutant; [2]): 1 to 25%
COc1c(F)cccc1-c1sc2nc(-c3nccn3C)nc(NC3CCC(OC)C3)c2c1-c1ccccc1 (stereo not shown) [drawing 886]	B (26-50% inhibition)	A (1-25% inhibition)	A (1-25% inhibition)	B (26-50% inhibition)	1 to 25%	1 to 25%	–	KRas G12C mutant + SOS: % inh. (KRas G12C mutant; with SOS (Table 7A)): A (1-25% inhibition); KRas G12C mutant: % inh. (KRas G12C mutant; without SOS (Table 7A)): B (26-50% inhibition)
COc1cccc(-c2sc3nc(-c4nc(C)cn4C)nc(N[C@@H]4CC[C@H](OC)C4)c3c2C)c1F [drawing 1031]	–	–	–	–	–	–	–	inhibition at 20 µM (KRas G12D mutant; [5]): 26 to 50%; inhibition at 20 µM (KRas G12D mutant; [6]): 1 to 25%
CO[C@H]1CC[C@@H](Nc2nc(-c3nc(C)cn3C)nc3sc(-c4cccc5[nH]ncc45)c(C)c23)C1 [drawing 1032]	–	–	–	–	–	–	–	inhibition at 20 µM (KRas G12D mutant; [5]): 26 to 50%; inhibition at 20 µM (KRas G12D mutant; [6]): 26 to 50%
COc1cccc(-c2sc3nc(-c4nccn4C)nc(N[C@@H]4CC[C@H](OC)C4)c3c2-c2ccccc2)c1F [drawing 884]	D (76-100% inhibition)	C (51-75% inhibition)	D (76-100% inhibition)	C (51-75% inhibition)	51 to 75%	51 to 75%	–	–
CO[C@H]1CC[C@@H](Nc2nc(-c3nc(C)cn3C)nc3sc(-c4cccc5[nH]ncc45)c(C)c23)C1 [drawing 897]	B (26-50% inhibition)	B (26-50% inhibition)	B (26-50% inhibition)	B (26-50% inhibition)	26 to 50%	26 to 50%	–	–
COC1CCN(C(=O)c2sc3nc(-c4nccn4C)nc(N[C@H]4C[C@@H](OC)C4)c3c2C2=CC=CCC=C2)C1 (stereo partly shown)	–	–	–	–	–	–	5 to 10 µM	–
COc1cccc(-c2sc3nc(-c4nc(C)cn4C)nc(N[C@@H]4CC[C@H](OC)C4)c3c2C)c1F [drawing 896]	B (26-50% inhibition)	A (1-25% inhibition)	B (26-50% inhibition)	A (1-25% inhibition)	26 to 50%	1 to 25%	–	–

Second part, led by results:

KRas Q61H mutant + SOS: % inh. (KRas Q61H mutant; with SOS (Table 7A))	KRas Q61H mutant: % inh. (KRas Q61H mutant; without SOS (Table 7A))	KRas wild type + SOS: % inh. (KRas wild type; with SOS (Table 7A))	KRas wild type % inh. (KRas wild type)	inhibition at 20 µM (KRas G12D mutant; [3])	inhibition at 20 µM (KRas G12D mutant; [4])	IC50 (KRas G12D mutant)	Compound	other results
D (76-100% inhibition)	D (76-100% inhibition)	C (51-75% inhibition)	C (51-75% inhibition)	51 to 75%	51 to 75%	–	CO[C@H]1CC[C@@H](Nc2nc(-c3nccn3C)nc3sc(C(=O)N4CCCC4)c(-c4ccccc4)c23)C1 [drawing 926]	KRas G12C mutant + SOS: % inh. (KRas G12C mutant; with SOS (Table 7A)): D (76-100% inhibition); KRas G12C mutant: % inh. (KRas G12C mutant; without SOS (Table 7A)): D (76-100% inhibition)
C (51-75% inhibition)	C (51-75% inhibition)	B (26-50% inhibition)	C (51-75% inhibition)	51 to 75%	51 to 75%	–	COc1cccc(Cn2ccnc2-c2nc(O)c3scc(-c4ccc(OCC(C)C)nc4)c3n2)c1 [drawing 900]	KRas G12C mutant + SOS: % inh. (KRas G12C mutant; with SOS (Table 7A)): B (26-50% inhibition); KRas G12C mutant: % inh. (KRas G12C mutant; without SOS (Table 7A)): C (51-75% inhibition)
–	–	–	–	–	–	5 to 10 µM	COCCNC(=O)c1sc2nc(-c3nccn3C)nc(N[C@H]3C[C@@H](OC)C3)c2c1-c1ccccc1 [drawing 1069]	–
–	–	–	–	–	–	1 to 4.99 µM	CO[C@H]1CC[C@@H](Nc2nc(-c3nccn3C)nc3sc(-c4ccn(C(C)C)n4)c(C4=CC=CCC=C4)c23)C1 [drawing 1063]	–
–	–	–	–	–	–	5 to 10 µM	CO[C@H]1CC[C@@H](Nc2nc(-c3nccn3C)nc3sc(-c4ccn(C(C)C)n4)c(C)c23)C1 [drawing 1067]	–
–	–	–	–	–	–	5 to 10 µM	CO[C@H]1CC[C@@H](Nc2nc(-c3nccn3C)nc3sc(C(=O)N4CCCC4)c(-c4ccccc4)c23)C1 [drawing 1074]	–

— patent US20250296938A1, “Compounds that Interact with the Ras Superfamily for the Treatment of Cancers, Inflammatory Diseases, Rasopathies, and Fibrotic Disease” (SHY Therapeutics, LLC, priority 2018, published 2025)
